In a melting point compilation (Tetko et al.; mined from patent text by program, amines drawn as free bases though some values may be those of a salt):

Row | Structure (SMILES) | melting point [°C]
1 | CCCc1nc(C)c2c(=O)[nH]c(N)nn12 | 266
2 | COc1cc2c(cc1OC)CN(CCOc1ccc(NC(=O)c3cccc4c(=O)c5ccccc5[nH]c34)cc1)CC2 | 154
3 | COc1ccc2c(c1)c(CC(=O)O)c(C)n2C(=O)c1ccc(OC(F)(F)F)cc1 | 136 to 138
4 | O=S1(=O)N(CCCN2CC=C(c3ccccc3)CC2)c2cccc3cccc(c23)N1CCCN1CC=C(c2ccccc2)CC1 | 140
5 | COC(=O)CCc1ccc(N2C(=O)CN(c3ccc(C#N)cc3)C2=O)cc1 | 188 to 190
6 | CCCNC(=O)C(O)C1(O)CCC2C3CCC4=CC(=O)C=CC4(C)C3C(O)CC21C (stereo unspecified) | 251 to 253
7 | Cc1c(-c2ccccc2)oc2c(CN=[N+]=[N-])cccc2c1=O | 132 to 134
8 | NNc1ncccc1Br | 146 to 148
9 | COCn1c(C)nc2c(O)cc(C(=O)N(C)C)cc21 | 173 to 183
10 | Cc1cc(-c2cc(COS(C)(=O)=O)c(=O)n(CC(C)C)n2)ccc1F | 115 to 117
11 | CC(C)(C)OC(=O)CCc1ccc(Cc2nnn(C(C)(C)C)n2)cc1 | 54 to 55
12 | C=CCOC(=O)c1c(C)nc2c(cnn2CCOCC)c1N | 38 to 40
13 | Cc1ccccc1-c1c(N)c(=O)oc2cc3c(cc12)CCC3 | 275 to 276
14 | COc1cccc(OC)c1-c1cc(C(=O)O)nn1-c1ccc(C(N)=O)cc1C | 275 to 276
15 | O=C(C(=O)c1ccc(Oc2cccc(Br)c2)cc1)c1ccccc1 | 75 to 76
16 | O=C(NCc1ccccc1F)c1ccc2cnccc2n1 | 110 to 111
17 | CCCCCCCCSc1nc(NCC(C)(C)c2cc(C(C)(C)C)c(O)c(C(C)(C)C)c2)nc(NC2CC(C)(C)NC(C)(C)C2)n1 | 130
18 | CCCCc1nc(Cl)c(CC(=O)OCC)c(Cc2ccc(C(=O)OC(C)(C)C)cc2)n1 | 65

Row | Structure (SMILES) | melting point [°C]
19 | CCOC(=O)c1c(-c2ccccc2Cl)c2cc(CC)ccc2n(C)c1=O | 125 to 126
20 | CCCN(C)c1ccc(-c2c(Cl)c(=O)c2=O)cc1 | 162
21 | CC(C)(C)c1cc(Sc2n[nH]c(=S)o2)cc(C(C)(C)C)c1O | 129 to 131
22 | O=C(O)c1cc(=O)cc(C=Cc2ccc(O)cc2)o1 | 256
23 | CCC=CC(c1cc(F)ccc1F)S(=O)(=O)c1ccc(Cl)cc1 (stereo unspecified) | 99 to 100
24 | NS(=O)(=O)c1ccc(NC(=O)c2ccccc2SSc2ccccc2C(=O)O)cc1 | 276 to 278
25 | NC(=O)CN1CC[C@H](OCc2cc(C(F)(F)F)cc(C(F)(F)F)c2)[C@H](c2ccccc2)C1 (relative stereo) | 123 to 125
26 | CCCc1c2oc(C#N)cc(=O)c2cc2c(=O)cc(C(=O)OCC)oc12 | 182 to 184
27 | c1ccc(Sc2cc(Sc3ccccc3)c3ccc4c(Sc5ccccc5)cc(Sc5ccccc5)c5ccc2c3c54)cc1 | 230
28 | COP(=O)(OC)[C@H](C)NC(=O)[C@H](C)NC(=O)CNC(=O)CNC(=O)OCc1ccccc1 | 124 to 127
29 | CC(=C(c1ccc(N(C)C)cc1)c1ccc(N(C)C)cc1)P(C(C)(C)C)C(C)(C)C | 133 to 135
30 | Cc1noc(NS(=O)(=O)c2ccccc2-c2cc3ccccc3n2S(=O)(=O)c2ccccc2)c1C | 207 to 209
31 | COC(=O)C(=O)CC(C)C1CCC2C3CC=C4CC(OC(C)=O)CCC4(C)C3CCC12C (stereo unspecified) | 146 to 147
32 | CCC1(C)OC(c2ccc(S(C)(=O)=O)cc2)=C(c2ccccc2)C1=O (stereo unspecified) | 115 to 117
33 | COc1ccc(Cc2nc3c(cnn3C(CCCc3ccccc3)C(C)O)c(=O)[nH]2)cc1 (stereo unspecified) | 41
34 | COc1ccc(C(O)(Cc2ccccc2)c2ccccc2)cc1 (stereo unspecified) | 111 to 112
35 | Cc1ccc(C(=O)Nc2ccc(-n3nc(C(F)(F)F)cc3C(F)(F)F)cc2)s1 | 200 to 202
36 | COc1ccc(/C=C/C(=O)/C=C/c2ccc(C(F)(F)F)cc2)cc1 | 144 to 146

Results, then the molecule that gave them:

Row | melting point [°C] | Structure (SMILES)
37 | 144 to 145 | C/C(Cn1oc(=O)[nH]c1=O)=C(\C)c1cccc(OCc2nc(-c3ccc(C(F)(F)F)cc3)oc2C)c1
38 | 131 to 133 | OCCCc1ccc2ccn(C3CCN(CCc4ccc(F)cc4)CC3)c2c1
39 | 138 to 140 | COC(=O)c1ccc(Cc2cccc3ccc(N)cc23)c(OC)c1
40 | 266 to 268 | CCc1noc(-c2cc3c(cn2)[nH]c2ccc(S(=O)(=O)N(C)C)cc23)n1
41 | 112 to 114 | COc1cccc(CC(O)C2CCN(CS(N)(=O)=O)CC2)c1OC (stereo unspecified)
42 | 221 to 223 | COc1cccc2c1nc(C(F)F)n2-c1nc(N2CCNCC2)nc(N2CC3CCC(C2)O3)n1
43 | 133 to 136 | Cc1c(C)c(N2CCN(c3ccc(C(C)O)cc3)CC2)c(C)c2c1OC(C)(C)C2 (stereo unspecified)
44 | 264 to 266 | COc1cc2c(cc1OC)-c1ncc(C(=O)O)c(=O)n1CC2
45 | 126 to 128 | O=C(c1coc(-c2ccc(CCl)cc2)n1)N1CCCC1
46 | 272 | Cc1cc(-c2cc(C(F)(F)F)n3ncc(-c4nc(-c5cnc(N)nc5)no4)c3n2)ccc1Cl
47 | 158 to 161 | O=C1NCCN1Cc1ccc2c(Br)cccc2c1
48 | 65.4 | CC[C@H]1CC[C@H](CCc2ccc(-c3ccc(C#N)cc3)c(F)c2)CC1
49 | 173 to 174 | CC1CNC(=Nc2ccccc2N2CCOCC2)N1 (stereo unspecified)
50 | 135 to 137 | CC(=O)c1ccc(OCCCN2CCC(c3nsc4cc(F)ccc34)CC2)c(O)c1
51 | 275 | COc1cc2c(cc1OC)C1=NCCN1C(/C=C(\O)c1cccnc1)=N2
52 | 185 to 195 | COc1cc(N2CCC(N3CCN(C)CC3)CC2)ccc1-c1nc2c(N[C@H]3[C@@H](C(N)=O)[C@@H]4C=C[C@H]3C4)ccnc2[nH]1
53 | 125 to 127 | CCOc1ccc(OCCCN2CCN(c3ccc(Cl)nn3)CC2)cc1
54 | 206 | O=c1ncc(Br)cn1CSc1ccc(F)cc1
55 | 225 to 228 | Cc1nc(-n2ccc3cc(O)ccc3c2=O)sc1C(=O)NCc1ccccc1
56 | 249 to 250 | O=C(Nc1ccccc1)N1CCc2c(cnc3[nH]nc(Br)c23)C1
57 | 208 to 210 | O=[N+]([O-])c1cccc(CSc2nc3cnccc3[nH]2)c1
58 | 178 to 179 | CCOC(=O)c1c(O)c2cnc(-c3ccccc3)nc2n(CCOC)c1=O
59 | 186 to 188 | CC1(C)CC(=O)C2=C(C1)NC1=C(C(=O)CC(C)(C)C1)C2c1cccc(Oc2ccncc2)c1
60 | 120 to 122 | Cc1cn(C2OC(COC(=O)c3ccccc3)C(OC(=O)c3ccccc3)C2F)c(=O)[nH]c1=O (stereo unspecified)
61 | 288 to 290 | NC(=O)[C@@H]1[C@H](Nc2c(Br)cnc3[nH]c(-c4ccc(N5CCOCC5)nc4)nc23)[C@H]2C=C[C@@H]1C2
62 | 231 to 236 | Cc1nc2c(c(-c3ccccc3)nn2C)c(-c2ccc(F)cc2)c1CO
63 | 294 to 296 | O=C(O)c1cccc(CNc2n[nH]c3ncnc(Nc4cccc(Cl)c4)c23)c1
64 | 234 to 235 | Cc1cc(C)c2nc(C)c(NC(=O)Nc3ccc(F)cc3F)c(-c3ccccc3Cl)c2c1
65 | 219 to 220 | Cc1cc2[nH]c(=O)n(C3CCN(CCCN(c4ccc(F)cc4)c4ccc(F)cc4)CC3)c2cc1C
66 | 189 to 190 | CNC(=O)c1cc(F)ccc1CNC(=O)c1nc2n(c(=O)c1OCc1ccccc1)CCOC2
